Where two headings read alike, the source gives them in different places.
What was measured:
[1] = tested on: soft tissue sarcoma; conditions: clinical trials for treating soft tissue sarcoma; cited from earlier work
[2] = tested on: LMS; assay: Median overall survival in LMS patients by PDGFRβ tumor status; format: in vivo, human; conditions: for OS HR: LMS female patients; for Hazard Ratio, overall survival / Hazard Ratio (95% CI), overall survival: Olaratumab + Doxorubicin vs Placebo + Doxorubicin; for OS HR adjusted for ECOG PS: adjusting for ECOG PS
[3] = tested on: advanced or metastatic soft tissue sarcoma; conditions: STS patients; for HR (95% CI), overall survival: Olaratumab + Doxorubicin vs Placebo + Doxorubicin
Method: Study Design: Patients with advanced or metastatic soft tissue sarcoma are treated with olaratumab (20 mg/kg loading dose on Days 1 and 8 of a 21-day cycle in Cycle 1, followed by 15 mg/kg on Days 1 and 8 in subsequent 21-day cycle) in combination with doxorubicin (75 mg/m^2 on Day 1) (“investigational cohort”) and compared to patients treated with placebo (on Days 1 and 8) plus doxorubicin (75 mg/m^2 on Day 1) (“control cohort”). Patients are treated for 8 cycles, followed by olaratumab monotherapy or placebo until evidence of progressive disease, unacceptable toxicity or death. […] Patients are assessed for median overall survival (OS).
Immunohistochemistry Assay to determine PDGFR/3 expression: For immunohistochemistry analysis, tumor tissue from patients is collected, formalin-fixed in 10% neutral buffered formalin, and paraffin-embedded (FFPE). PDGFRβ protein expression on tumor cells is assessed by immunohistochemistry. Briefly, from FFPE tissue blocks containing the patient tumor tissue, a 4-6 micrometer section is obtained and placed on a positively charged glass slide. Anti-PDGFRβ mouse monoclonal antibody 2B3 is used to detect expression of PDGFRβ (clone 2B3, Cell Signaling Technology® catalog number 3175S), diluted in Dako Primary Antibody Diluent with Background Reducing Components (Dako/Agilent catalog number S3022) at 0.25 μm/mL. Immunohistochemistry is performed on a Dako Autostainer Link 48/PT Link Incubator. Deparaffinization with the Link 48/PT Link Incubator is accomplished at 97° C. for 20 minutes. Target retrieval is next accomplished with immersion of the unstained slides into EnVision™ FLEX Target Retrieval Solution High pH (Dako) on the Dako Link48/PT Link Incubator. Following a rinse in RT EnVision™ FLEX Wash Buffer (1×), specific immunohistochemical staining with the 2B3 antibody is accomplished by FLEX Peroxidase Block for 5 minutes, application of the 0.25 ug/mL concentration of anti-human PDGFRβ antibody 2B3 with incubation for 60 minutes, followed by FLEX/HRP application and incubation for 20 minutes, then application of FLEX DAB+ Substrate Chromogen for 10 minutes, and finally FLEX hematoxylin for 5 minutes. Ready-to-use FLEX Mouse Negative Control (Dako/Agilent catalog number IR750) is performed alongside PDGFRβ staining and used as a quality control (negative control) for the assay. Stained slides are then evaluated by trained personnel using a brightfield microscope.

[4] = LMS patients excluding PDGFRβ positive females
[5] = LMS patients, PDGFRβ negative tumor status
[6] = LMS patients, PDGFRβ positive tumor status
[7] = PDGFRβ negative and PDGFRα positive tumor status

Substance: LARTRUVO®: an antibody that specifically binds human PDGFRα
- therapeutic endpoints in clinical trials [1]: failed to meet certain therapeutic endpoints

Substance: Olaratumab + Doxorubicin: olaratumab (antibody that binds human PDGFRα) in combination with doxorubicin, followed by olaratumab monotherapy
- OS HR ([2]; PDGFRβ negative tumor status): 0.55
- OS HR ([2]; PDGFRβ positive tumor status): 1.34
- Median OS months [2, 4]: 28.5 months
- Hazard Ratio, overall survival [2, 4]: 0.60; p = 0.035
- Hazard Ratio, overall survival ([2]; LMS patients excluding PDGFRβ positive females, listed as investigational cohort): 0.60
- Median OS months [2, 5]: 29.11 months
- Hazard Ratio (95% CI), overall survival ([2]; LMS patients, PDGFRβ negative): 0.65 (0.33, 1.25)
- Hazard Ratio (95% CI), overall survival ([2]; LMS patients, PDGFRβ negative, listed as investigational cohort): 0.65
- Median OS months [2, 6]: 20.14 months
- Hazard Ratio (95% CI), overall survival ([2]; LMS patients, PDGFRβ positive): 1.05 ((0.71, 1.55)
- Hazard Ratio (95% CI), overall survival ([2]; LMS patients, PDGFRβ positive, listed as investigational cohort): 1.05
- OS HR adjusted for ECOG PS ([2]; PDGFRβ negative women with LMS): 0.55
- OS HR adjusted for ECOG PS ([2]; PDGFRβ positive women with LMS): 1.34
- median OS ([3]; PDGFRα negative tumor status): 23.6 months
- median OS ([3]; PDGFRα positive tumor status): 17.2 months
- median OS [3, 7]: 28.5 months
- Median OS months ([3]; PDGFRβ negative tumor status): 28.32 months
- HR (95% CI), overall survival ([3]; PDGFRβ negative): 0.85 (0.54-1.33)
- HR (95% CI), overall survival ([3]; PDGFRβ negative, listed as investigational cohort): 0.85
- Median OS months ([3]; PDGFRβ positive tumor status): 18.79 months
- Median OS months ([3]; PDGFRβ positive tumor status, listed as investigational cohort): 18.8 months
- HR (95% CI), overall survival ([3]; PDGFRβ positive): 1.10 (0.84-1.44)

Substance: doxorubicin [Placebo + Doxorubicin, reference compound]
- Median OS months [2, 4]: 20.9 months
- Median OS months [2, 5]: 21.88 (16.72, 35.55) months
- Median OS months ([2]; LMS patients, PDGFRβ negative tumor status, listed as control cohort): 21.88 months
- Median OS months [2, 6]: 21.39 (15.57, 24.57) months
- Median OS months ([2]; LMS patients, PDGFRβ positive tumor status, listed as control cohort): 21.39 months
- median OS ([3]; PDGFRα negative tumor status): 21.9 months
- median OS ([3]; PDGFRα positive tumor status): 19.1 months
- median OS [3, 7]: 20.6 months
- Median OS months ([3]; PDGFRβ negative tumor status): 20.57 months
- Median OS months ([3]; PDGFRβ positive tumor status): 19.88 months
- Median OS months ([3]; PDGFRβ positive tumor status, listed as control cohort): 19.9 months

— patent publication US20240228633A9, “METHODS OF TREATING CANCER WITH PDGFR ALPHA INHIBITORS” (Eli Lilly and Company, priority 2021, published 2024)
